Assay results taken from the NIST ThermoML archive (doi:10.1021/acs.jced.5b00971).

Conditions: Liquid; for thermal conductivity: Hot wire method; for viscosity: Capillary tube (Ostwald / Ubbelohde) method; for mass density: Pycnometric method

CCCCCCCCCC(=O)O [decanoic acid]
101.33 kPa
Conditions	mass density [kg/m3]	thermal conductivity [W/m/K]	viscosity [mPa·s]
308 K	–	0.154	–
322.1 K	878	–	4.75
327.4 K	–	0.15	–
332.1 K	871	–	3.8
348.8 K	–	0.146	–
352.1 K	855.3	–	2.55
368.3 K	843.1	–	1.94
373.9 K	–	0.14	–
388.3 K	827.3	–	1.45
398.3 K	–	0.135	–
408.2 K	812.2	–	1.1
421.9 K	–	0.13	–
427.2 K	797.2	–	0.88
428.2 K	796.4	–	0.87
442.2 K	784.9	–	0.75
447.3 K	–	0.125	–
457.2 K	772.9	–	0.64
472.2 K	761.9	–	0.56
473.4 K	–	0.119	–

CCCCCCCCCCCC(=O)O [dodecanoic acid]
101.33 kPa
Conditions	mass density [kg/m3]	thermal conductivity [W/m/K]	viscosity [mPa·s]
322.1 K	872.4	–	7.21
324.6 K	–	0.156	–
332.1 K	864.6	–	5.62
348.7 K	–	0.151	–
352.1 K	849.9	–	3.7
368.2 K	838.9	–	2.69
373.8 K	–	0.145	–
388.4 K	824.1	–	1.97
398.4 K	–	0.14	–
408.1 K	809.3	–	1.47
422 K	–	0.134	–
428.1 K	794.4	–	1.11
442.2 K	783.5	–	0.95
447.5 K	–	0.129	–
457.2 K	770.2	–	0.8
467.2 K	762	–	0.72
472.7 K	–	0.123	–

CCCCCCC(=O)O [heptanoic acid]
101.33 kPa
Conditions	mass density [kg/m3]	thermal conductivity [W/m/K]	viscosity [mPa·s]
290.3 K	920.6	–	4.63
296 K	–	0.144	–
308 K	905.7	–	3.06
314.4 K	–	0.14	–
323.1 K	893	–	2.3
332.4 K	–	0.137	–
338.1 K	880.4	–	1.74
352.6 K	–	0.133	–
353.1 K	867.8	–	1.39
367.1 K	855.4	–	1.13
372.2 K	–	0.13	–
382 K	–	0.127	–
383.2 K	842.3	–	0.94
391.9 K	–	0.124	–
397.9 K	829.4	–	0.79
412.4 K	–	0.121	–
412.9 K	816.6	–	0.68
427.7 K	803.4	–	0.59
441.7 K	–	0.116	–
471.4 K	–	0.11	–

CCCCCC(=O)O [hexanoic acid]
101.33 kPa
Conditions	mass density [kg/m3]	thermal conductivity [W/m/K]	viscosity [mPa·s]
294.5 K	926	–	–
294.6 K	–	–	3.07
296.9 K	–	0.143	–
312.1 K	910.5	–	2.15
325.7 K	–	0.138	–
332.1 K	893.1	–	1.52
347.4 K	–	0.134	–
352.1 K	875.8	–	1.14
368.1 K	861.7	–	0.94
374.7 K	–	0.128	–
388.4 K	843.5	–	0.73
398.1 K	–	0.124	–
408.3 K	825.3	–	0.6
422.3 K	–	0.12	–
428.3 K	806.5	–	0.49
445.6 K	–	0.116	–
471.2 K	–	0.113	–

CCCCCCCCC(=O)O [nonanoic acid]
101.33 kPa
Conditions	mass density [kg/m3]	thermal conductivity [W/m/K]	viscosity [mPa·s]
290.3 K	906	–	–
292.3 K	–	–	8.2
296.3 K	–	0.15	–
308 K	893.8	–	5.25
322.6 K	–	0.144	–
323.1 K	881.9	–	3.66
338.1 K	870.1	–	2.7
352.9 K	–	0.139	–
353.1 K	858.4	–	2.07
368 K	846.7	–	1.63
381.3 K	–	0.133	–
383.1 K	834.1	–	–
383.3 K	–	–	1.31
398.1 K	822.3	–	1.08
412.2 K	–	0.126	–
413 K	810.3	–	0.9
427.9 K	798	–	0.76
441.4 K	–	0.121	–
471.6 K	–	0.115	–

CCCCCCCC(=O)O [octanoic acid]
101.33 kPa
Conditions	mass density [kg/m3]	thermal conductivity [W/m/K]	viscosity [mPa·s]
290.3 K	910.3	–	–
293.3 K	–	–	5.86
297.2 K	–	0.147	–
308 K	898.2	–	3.98
322.3 K	–	0.142	–
323.1 K	885.9	–	2.88
338.1 K	873.8	–	2.17
352.8 K	–	0.136	–
353.1 K	861.8	–	1.69
367.8 K	849.7	–	1.36
383.1 K	837.2	–	1.11
387.6 K	–	0.13	–
398.1 K	824.6	–	0.92
411.3 K	–	0.124	–
412.9 K	812.3	–	0.78
427.7 K	799.2	–	0.67
442 K	–	0.118	–
471.7 K	–	0.112	–

CCCCC(=O)O [pentanoic acid]
Conditions	mass density [kg/m3]	thermal conductivity [W/m/K]	viscosity [mPa·s]
293.4 K	939.7	–	2.19
296.1 K	–	0.141	–
312.1 K	922.3	–	1.56
324.1 K	–	0.136	–
332.1 K	904.1	–	1.17
348.6 K	–	0.131	–
352.2 K	885.4	–	0.89
368.1 K	870.6	–	0.75
374 K	–	0.126	–
388.4 K	851	–	0.6
398 K	–	0.122	–
408.3 K	831.9	–	0.5
422.4 K	–	0.118	–
428.2 K	812.1	–	0.41
446.4 K	–	0.115	–
471.3 K	–	0.111	–

CCCCCCCCCCCCCC(=O)O [tetradecanoic acid]
101.33 kPa
Conditions	mass density [kg/m3]	thermal conductivity [W/m/K]	viscosity [mPa·s]
332.1 K	861.3	–	7.77
334.4 K	–	0.158	–
349 K	–	0.155	–
352.1 K	846.9	–	4.88
368.2 K	835.6	–	3.53
374.1 K	–	0.149	–
388.2 K	821.4	–	2.48
397.7 K	–	0.144	–
408.2 K	806.7	–	1.79
422.3 K	–	0.139	–
427.9 K	791.7	–	1.35
442.2 K	–	–	1.13
443.2 K	780.9	–	–
447.3 K	–	0.133	–
457.2 K	–	–	0.95
458.2 K	769.3	–	–
471.9 K	–	0.127	–
472.2 K	–	–	0.81
473.2 K	758	–	–
